Legend:
Assay in all cases: Determination of fungal susceptibility (MIC, microdilution in CYG medium)
Assay type in all cases: cell-based
[1] = tested on: Trichophyton mentagrophytes; conditions: single isolate, 5 days at 30° C., growth (OD 405 nm) inhibited to 35% of control or less
Description: (§1) A panel single isolates of the dermatophytes Sporothrix schenckii; Microsporum canis; Trichophyton rubrum; Trichophyton mentagrophyte; Candida parapsilosis; Cryptococcus neoformans; and Aspergillus fumigatus were used to evaluate the activity of the test compounds in vitro. Inocula were prepared as broth cultures (yeasts) or as suspensions of fungal material made from agar slope cultures (moulds). The test compounds were pipetted from dimethylsulfoxide stock solution into water to provide a series of 10-fold dilutions. The fungal inocula were suspended in the growth medium CYG (F.C. Odds, Journal of Clinical Microbiology, 29, 2735-2740, 1991) at approximately 50,000 colony-forming units (CFU) per ml and added to the aqueous test drugs. The cultures were set up in the 96 wells of plastic microdilution plates and they were incubated for 2 days at 37° C. (Candida spp.) or for 5 days at 30° C. (other fungi). Growth in the microcultures was measured by their optical density (OD) measured at a wavelength of 405 nm. The OD for cultures with test compounds was calculated as a percentage of the OD for control cultures, i.e. the OD for cultures without test compounds. Inhibition of growth to 35% of control or less was recorded as significant inhibition. Minimal inhibitory concentration (MIC; in 10^−6 M) of some of the compounds of formula (I) for the tested species are listed in Table.

[2] = tested on: Aspergillus fumigatus; conditions: single isolate, 5 days at 30° C., growth (OD 405 nm) inhibited to 35% of control or less
Description: as §1

[3] = tested on: Cryptococcus neoformans; conditions: single isolate, 5 days at 30° C., growth (OD 405 nm) inhibited to 35% of control or less
Description: as §1

[4] = tested on: Candida parapsilosis; conditions: single isolate, 2 days at 37° C., growth (OD 405 nm) inhibited to 35% of control or less
Description: as §1

[5] = tested on: Microsporum canis; conditions: single isolate, 5 days at 30° C., growth (OD 405 nm) inhibited to 35% of control or less
Description: as §1

[6] = tested on: Trichophyton rubrum; conditions: single isolate, 5 days at 30° C., growth (OD 405 nm) inhibited to 35% of control or less
Description: as §1

[7] = tested on: Sporothrix schenckii; conditions: single isolate, 5 days at 30° C., growth (OD 405 nm) inhibited to 35% of control or less
Description: as §1

| SMILES | MIC values, Trichophyton mentagrophytes [1] | MIC values, Aspergillus fumigatus [2] | MIC values, Cryptococcus neoformans [3] | MIC values, Candida parapsilosis [4] | MIC values, Microsporum canis [5] | MIC values, Trichophyton rubrum [6] | MIC values, Sporothrix schenkii [7] |
| --- | --- | --- | --- | --- | --- | --- | --- |
| Br.COc1ccc(C2NCc3c(Cl)cccc3-n3cccc32)cc1 (stereo not drawn) [Comp. 1] | 2.1 10^−6 M | 10 10^−6 M | >10 10^−6 M | >10 10^−6 M | 5.5 10^−6 M | 2.1 10^−6 M | >10 10^−6 M |
| Br.CCc1ccc(C2NCc3c(Cl)cccc3-n3cccc32)cc1 (stereo not drawn) [Comp. 2] | 0.32 10^−6 M | 3.2 10^−6 M | >10 10^−6 M | 1 10^−6 M | 0.32 10^−6 M | 0.03 10^−6 M | >10 10^−6 M |
| Br.FC(F)(F)c1cccc(C2NCc3c(Cl)cccc3-n3cccc32)c1 (stereo not drawn) [Comp. 3] | 3.2 10^−6 M | 10 10^−6 M | >10 10^−6 M | >10 10^−6 M | 2.1 10^−6 M | 2.1 10^−6 M | >10 10^−6 M |
| Br.CC(C)c1ccc(C2NCc3ccccc3-n3cccc32)cc1 (stereo not drawn) [Comp. 4] | 3.2 10^−6 M | >10 10^−6 M | >10 10^−6 M | >10 10^−6 M | 10 10^−6 M | 3.2 10^−6 M | >10 10^−6 M |
| Br.Cc1ccc(C2NCc3c(Cl)cccc3-n3cccc32)cc1 (stereo not drawn) [Comp. 5] | 1 10^−6 M | >10 10^−6 M | >10 10^−6 M | >10 10^−6 M | 1 10^−6 M | 0.32 10^−6 M | >10 10^−6 M |
| Br.CC(C)c1ccc(C2NCc3c(Cl)cccc3-n3cccc32)cc1 (stereo not drawn) [Comp. 6] | 1 10^−6 M | >10 10^−6 M | >10 10^−6 M | 10 10^−6 M | 0.32 10^−6 M | 0.32 10^−6 M | >10 10^−6 M |
| Br.CC(C)(C)c1ccc(C2NCc3c(Cl)cccc3-n3cccc32)cc1 (stereo not drawn) [Comp. 7] | 1 10^−6 M | >10 10^−6 M | >10 10^−6 M | 10 10^−6 M | 0.32 10^−6 M | 0.1 10^−6 M | 10 10^−6 M |
| Br.CCCCc1ccc(C2NCc3c(Cl)cccc3-n3cccc32)cc1 (stereo not drawn) [Comp. 8] | 1 10^−6 M | >10 10^−6 M | >10 10^−6 M | >10 10^−6 M | 1 10^−6 M | 0.1 10^−6 M | >10 10^−6 M |
| Br.CCCc1ccc(C2NCc3c(Cl)cccc3-n3cccc32)cc1 (stereo not drawn) [Comp. 9] | 0.32 10^−6 M | >10 10^−6 M | >10 10^−6 M | 3.2 10^−6 M | 0.32 10^−6 M | 0.1 10^−6 M | >10 10^−6 M |
| CCc1ccc(C2c3cccn3-c3cccc(Cl)c3CN2C)cc1 (stereo not drawn) [Comp. 10, 4-(4′-ethylphenyl)-5-methyl-7-chlorobenzo[1,2]-pyrrolo-[1,2a][1,4]diazepine] | 10 10^−6 M | >10 10^−6 M | >10 10^−6 M | >10 10^−6 M | >10 10^−6 M | 3.2 10^−6 M | >10 10^−6 M |
| CCc1ccc(C2NCc3cc(Cl)ccc3-n3cccc32)cc1 (stereo not drawn) [Comp. 11] | 3.2 10^−6 M | >10 10^−6 M | >10 10^−6 M | >10 10^−6 M | >10 10^−6 M | 3.2 10^−6 M | >10 10^−6 M |
| Br.Clc1cccc2c1CNC(c1ccsc1)c1cccn1-2 (stereo not drawn) [Comp. 12] | >10 10^−6 M | >10 10^−6 M | >10 10^−6 M | >10 10^−6 M | >10 10^−6 M | 3.2 10^−6 M | >10 10^−6 M |
| Br.CCc1ccc(C2NCc3ccccc3-n3cccc32)cc1 (stereo not drawn) [Comp. 13] | 3.2 10^−6 M | >10 10^−6 M | >10 10^−6 M | >10 10^−6 M | >10 10^−6 M | 1 10^−6 M | >10 10^−6 M |
| CC(C)c1ccc(C2NCc3c(F)cccc3-n3cccc32)cc1 (stereo not drawn) [Comp. 14] | 1 10^−6 M | >10 10^−6 M | >10 10^−6 M | >10 10^−6 M | 10 10^−6 M | 0.32 10^−6 M | >10 10^−6 M |
| CCc1ccc(C2NCc3c(F)cccc3-n3cccc32)cc1 (stereo not drawn) [Comp. 15] | 1 10^−6 M | 10 10^−6 M | >10 10^−6 M | 10 10^−6 M | 3.2 10^−6 M | 0.32 10^−6 M | >10 10^−6 M |
| Br.CCc1ccc(C2NCc3ccc(Cl)cc3-n3cccc32)cc1 (stereo not drawn) [Comp. 16] | 1 10^−6 M | >10 10^−6 M | >10 10^−6 M | >10 10^−6 M | 1 10^−6 M | 0.1 10^−6 M | >10 10^−6 M |
| Br.CCOc1ccc(C2NCc3ccc(Cl)cc3-n3cccc32)cc1 (stereo not drawn) [Comp. 17] | 10 10^−6 M | >10 10^−6 M | >10 10^−6 M | >10 10^−6 M | >10 10^−6 M | 10 10^−6 M | >10 10^−6 M |
| Br.CC(C)c1ccc(C2NCc3ccc(Cl)cc3-n3cccc32)cc1 (stereo not drawn) [Comp. 18] | 1 10^−6 M | >10 10^−6 M | >10 10^−6 M | >10 10^−6 M | >10 10^−6 M | 1 10^−6 M | >10 10^−6 M |
| Br.Cc1ccc(C2NCc3ccc(Cl)cc3-n3cccc32)cc1 (stereo not drawn) [Comp. 19] | 3.2 10^−6 M | >10 10^−6 M | >10 10^−6 M | >10 10^−6 M | 10 10^−6 M | 0.32 10^−6 M | >10 10^−6 M |
| Br.N#Cc1ccc(C2NCc3ccc(Cl)cc3-n3cccc32)cc1 (stereo not drawn) [Comp. 20] | >10 10^−6 M | >10 10^−6 M | >10 10^−6 M | >10 10^−6 M | >10 10^−6 M | 0.32 10^−6 M | >10 10^−6 M |
| CCc1ccc(C2=NCc3ccccc3-n3cccc32)cc1 [Comp. 21] | 0.32 10^−6 M | 1 10^−6 M | >10 10^−6 M | 3.2 10^−6 M | 0.32 10^−6 M | 0.03 10^−6 M | 10 10^−6 M |

Source: patent US7820650B2, “Antifungal 4-substituted 5,6-dihydro-4H-pyrrolo [1,2-a][1,4]benzodiazepines” (Janssen Pharmaceutica NV, priority 2000, dated 2010)
